From US11858956B2, “6-aza-nucleoside prodrugs as antiviral agents for treating virus infections” (Southern Research Institute, priority 2020, dated 2024)

How the values were obtained:
Format in all cases: cell-based
[1] = system: DENV; assay: Antiviral activity against DENV in HEK293 cells; conditions: Dengue virus; for EC90: HEK293, read-out: DENV (HEK293 cells) EC90; for log reduction at 10 µM: HEK293, read-out: DENV (HEK293 cells) VTR (virus titer reduction)
[2] = Cytotoxicity (CC50) in MDCK cells; conditions: dog, H1N1
Method: (§1) As used herein, “CC50” is intended to refer to the concentration of a substance (e.g., a compound or a drug) that is required for 50% reduction of cell viability. In one aspect, an CC50 can refer to the concentration of a substance that is required for 50% reduction (i.e., cytotoxicity) in vivo, as further defined elsewhere herein.
(§2) The antiviral activity against Influenza viruses (H1N1 and H3N2 strains) evaluated in MDCK cells (4-6 hours pre-incubation with compound) shown in Table 5 below. VTR=Virus titer reduction in log at 20 μM concentration. NT: not tested, ND: not determined.

[3] = system: ZIKA; assay: Antiviral activity against ZIKA in HEK 293 cells; conditions: Zika virus; for EC90: HEK293, read-out: ZIKA (HEK 293 cells) EC90; for log reduction at 10 µM: HEK293, read-out: ZIKA (HEK 293 cells) VTR (virus titer reduction)
[4] = system: VEEV; assay: microbe, parasite or virus in culture; conditions: Venezuelan equine encephalitis virus, NHDF; for EC90: read-out: VEEV (NHDF cells) EC90; for log reduction at 10 µM: read-out: VEEV (NHDF cells) VTR (virus titer reduction)
[5] = system: H1N1 strain; assay: Antiviral activity against Influenza H1N1 strain in MDCK cells; conditions: Influenza A virus; for log reduction at 20 µM: at 20 μM concentration, 4-6 hours pre-incubation, read-out: H1N1 strain (MDCK cells) VTR (virus titer reduction)
Method: as §2

[6] = system: H3N2 strain; assay: Antiviral activity against Influenza H3N2 strain in MDCK cells; conditions: Influenza A virus; for log reduction at 20 µM: at 20 μM concentration, 4-6 hours pre-incubation, read-out: H3N2 strain (MDCK cells) VTR (virus titer reduction)
Method: as §2

[7] = Cytotoxicity (CC50) in NHDF cells; conditions: human, CHIKV
Method: as §1
VTR=Virus titer reduction in log at 10 μM concentration. NT: not tested, ND: not determined.

[8] = system: CHIKV; assay: Antiviral activity against CHIKV in NHDF cells; conditions: Chikungunya virus; for EC90: read-out: CHIKV (NHDF cells) EC90; for log reduction at 10 µM: read-out: CHIKV (NHDF cells) VTR (virus titer reduction)
[9] = system: WNV; assay: Antiviral activity against WNV in HEK293 cells; conditions: West Nile virus; for EC90: HEK293, read-out: WNV (HEK293 cells) EC90; for log reduction at 10 µM: HEK293, read-out: WNV (HEK293 cells) VTR (virus titer reduction)
[10] = Cytotoxicity (CC50) in HEK293 cells; conditions: human, WNV
Method: as §1
The antiviral activity against Alpharviruses evaluated in HEK293 cells (4 hours pre-incubation with compound before infected with virus) is shown in Table 2 below. VTR=Virus titer reduction in log at 10 μM concentration. NT: not tested, ND: not determined

[11] = 4-6 hours pre-incubation with compound

For CCOC(=O)[C@H](C)NP(=O)(OC[C@H]1O[C@@H](n2ncc(=O)[nH]c2=O)[C@H](O)[C@@H]1O)Oc1ccccc1 (mixture of isomers) [Compound 6, ethyl ((((2R,3S,4R,5R)-5-(3,5-dioxo-4,5-dihydro-1,2,4-triazin-2(3H)-yl)-3,4-dihydroxytetrahydrofuran-2-yl)methoxy)-(phenoxy)phosphoryl)-L-alaninate], the EC90 [1] was greater than 15 µM, the CC50 [2] was greater than 100 µM and the EC90 [3] was 12 µM. It also gave an EC90 [4] greater than 10 µM, a log reduction at 10 µM [4] of 0 and a log reduction at 20 µM [5] of 1.6. The log reduction at 20 µM [6] was 0.2, the CC50 [7] was greater than 40 µM and the EC90 [8] was greater than 10 µM. The log reduction at 10 µM [8] was 0, the EC90 [9] was 10 µM and the CC50 [10] was greater than 40 µM.
For C[C@H](NP(=O)(OC[C@H]1O[C@@H](n2ncc(=O)[nH]c2=O)[C@H](O)[C@@H]1O)Oc1ccccc1)C(=O)OCc1ccccc1 (mixture of isomers) [Compound 2, Benzyl ((((2R,3S,4R,5R)-5-(3,5-dioxo-4,5-dihydro-1,2,4-triazin-2(3H)-yl)-3,4-dihydroxytetrahydrofuran-2-yl)methoxy)-(phenoxy)phosphoryl)-L-alaninate], the EC90 [1] was 6.9 µM, the log reduction at 10 µM [1] was 1.3 and the CC50 [2] was greater than 100 µM. For the same compound, the EC90 [3] was 16 µM, the EC90 [4] was greater than 10 µM and the log reduction at 10 µM [4] was 0. For the same compound, the log reduction at 20 µM [5] was 2.3, the log reduction at 20 µM [6] was 0.9 and the CC50 [7] was greater than 40 µM. It also gave an EC90 [8] of 0.4 µM, a log reduction at 10 µM [8] of 0 and an EC90 [9] of 1.3 µM. It also gave a log reduction at 10 µM [9] of 3 and a CC50 [10] greater than 40 µM.
CC(C)[C@@H](N)C(=O)OC[C@H]1O[C@@H](n2ncc(=O)[nH]c2=O)C(O)[C@H]1O (stereo partly drawn) [Compound 9, ((2r,3s,4r,5r)-5-(3,5-dioxo-4,5-dihydro-1,2,4-triazin-2(3H)-yl)-3,4-dihydroxytetrahydrofuran-2-yl) methyl-D-valinate] gave an EC90 [1] of 1.3 µM, a log reduction at 10 µM [1] of 3.2 and a CC50 [2] of 19.6 µM. For the same compound, the EC90 [3] was 1.4 µM, the log reduction at 10 µM [3] was 2 and the EC90 [4] was 3.04 µM. The log reduction at 10 µM [4] was 3.1, the EC90 [5, 11] was 0.77 µM and the log reduction at 20 µM [5] was 3.4. For the same compound, the EC90 [6, 11] was 2.41 µM, the log reduction at 20 µM [6] was 3.4 and the CC50 [7] was greater than 40 µM. For the same compound, the EC90 [8] was 1 µM, the log reduction at 10 µM [8] was 1.34 and the EC90 [9] was 0.22 µM. For the same compound, the log reduction at 10 µM [9] was 3.5 and the CC50 [10] was 29 µM.
For CC(C)COC(=O)[C@H](C)N[P@](=O)(OC[C@H]1O[C@@H](n2ncc(=O)[nH]c2=O)[C@H](O)[C@@H]1O)Oc1cccc2ccccc12 [Compound 8, isobutyl ((((2R,3S,4R,5R)-5-(3,5-dioxo-4,5-dihydro-1,2,4-triazin-2(3H)-yl)-3,4-dihydroxytetrahydrofuran-2-yl)-methoxy)(naphthalen-1-yloxy)phosphoryl)-L-alaninate], the EC90 [1] was 3.9 µM, the log reduction at 10 µM [1] was 2.3 and the CC50 [2] was greater than 100 µM. For the same compound, the EC90 [3] was 6 µM, the log reduction at 10 µM [3] was 1.6 and the EC90 [4] was greater than 10 µM. It also gave a log reduction at 10 µM [4] of 0.21, a log reduction at 20 µM [5] of 3.4 and a log reduction at 20 µM [6] of 1.6. For the same compound, the CC50 [7] was greater than 40 µM, the EC90 [8] was greater than 10 µM and the log reduction at 10 µM [8] was 0. The EC90 [9] was 2.9 µM, the log reduction at 10 µM [9] was 2.8 and the CC50 [10] was greater than 40 µM.
CC(C)OC(=O)[C@H](C)NP(=O)(OC[C@H]1O[C@@H](n2ncc(=O)[nH]c2=O)[C@H](O)[C@@H]1O)Oc1ccccc1 (mixture of isomers) [Compound 5, isopropyl ((((2R,3S,4R,5R)-5-(3,5-dioxo-4,5-dihydro-1,2,4-triazin-2(3H)-yl)-3,4-dihydroxytetrahydrofuran-2-yl)methoxy)(phenoxy)phosphoryl)-L-alaninate] gave an EC90 [1] greater than 30 µM, a CC50 [2] greater than 100 µM and an EC90 [3] greater than 30 µM. The EC90 [4] was greater than 10 µM, the log reduction at 10 µM [4] was 0 and the log reduction at 20 µM [5] was 0.2. The log reduction at 20 µM [6] was -0.1, the CC50 [7] was greater than 40 µM and the EC90 [8] was greater than 10 µM. The log reduction at 10 µM [8] was 0.15 and the EC90 [9] was greater than 30 µM.
